# Assay results reported in ChEMBL document CHEMBL1268927, “Antitumor activity of 3,4-dihydroquinazoline dihydrochloride in A549 xenograft nude mice” (Bioorg Med Chem Lett, 2010).
# Key:
# [1] = test system: Mus musculus; assay: Toxicity in ICR mouse assessed as appearance of clinical signs at 250 mg/kg, po administered as single dose; format: organism-based; design: dose 250 mg/kg, route oral; conditions: in vivo
# [2] = test system: Rattus norvegicus; assay: Volume of distribution in Sprague-Dawley rat at 5 mg/kg, iv; format: ADME, organism-based; design: dose 5 mg/kg, route intravenous; conditions: in vivo
# [3] = test system: Mus musculus; assay: Toxicity in ICR mouse assessed as occurrence of diarrhea at 100 mg/kg, po administered as single dose; format: organism-based; design: dose 100 mg/kg, route oral; conditions: in vivo
# [4] = test system: SK-OV-3; assay: Cytotoxicity against human SKOV3 cells by MTT assay; format: functional, cell-based
# [5] = Cmax in Sprague-Dawley rat at 5 mg/kg, iv; format: ADME, organism-based; design: dose 5 mg/kg, route intravenous; conditions: in vivo
# [6] = AUC in Sprague-Dawley rat at 5 mg/kg, iv; format: ADME, organism-based; design: dose 5 mg/kg, route intravenous; conditions: plasma
# [7] = test system: Mus musculus; assay: Toxicity in ICR mouse assessed as occurrence of panting at 45 mg/kg, iv administered as single dose measured up to 10 mins; format: organism-based; design: dose 45 mg/kg, route intravenous; conditions: in vivo
# [8] = test system: Mus musculus; assay: Toxicity in BALB/c mouse xenografted with human A549 cells assessed as effect on body weight at 1 to 2 mg/kg, iv QD for 28 days measured post last dose; format: organism-based; design: dose 1-2 mg/kg, route intravenous; conditions: in vivo, 672 h
# [9] = test system: Mus musculus; assay: Toxicity in ICR mouse assessed as loss of locomotor activity at 34.6 mg/kg, iv administered as single dose; format: organism-based; design: dose 34.6 mg/kg, route intravenous; conditions: in vivo
# [10] = test system: A549; assay: Ratio of compound to doxorubicin activity against human A549 cells xenografted in BALB/c mouse at 2 mg/kg, iv; format: functional
# [11] = AUC in Sprague-Dawley rat at 10 mg/kg, iv; format: ADME, organism-based; design: dose 10 mg/kg, route intravenous; conditions: plasma
# [12] = test system: MDA-MB-231; assay: Cytotoxicity against human MDA-MB-231 cells by MTT assay; format: functional, cell-based
# [13] = test system: A549; assay: Antitumor activity against human A549 cells xenografted in BALB/c mouse assessed as inhibition of tumor weight at 1 mg/kg, iv QD for 28 days measured post last dose; format: functional; conditions: A549, 672 h
# [14] = Toxicity in ICR mouse assessed as mortality rate at 1000 mg/kg, po administered as single dose; format: organism-based; design: dose 1000 mg/kg, route oral; conditions: in vivo, read-out: Activity
# [15] = Oral bioavailability in Sprague-Dawley rat at 10 mg/kg; format: ADME, organism-based; conditions: in vivo
# [16] = test system: A549; assay: Cytotoxicity against human A549 cells by MTT assay; format: functional, cell-based
# [17] = Toxicity in ICR mouse assessed as mortality rate at 250 mg/kg, po administered as single dose; format: organism-based; design: dose 250 mg/kg, route oral; conditions: in vivo, read-out: Activity
# [18] = test system: Rattus norvegicus; assay: Half life in Sprague-Dawley rat at 10 mg/kg, iv; format: ADME, organism-based; design: dose 10 mg/kg, route intravenous; conditions: in vivo
# [19] = Cmax in Sprague-Dawley rat at 10 mg/kg, iv; format: ADME, organism-based; design: dose 10 mg/kg, route intravenous; conditions: in vivo
# [20] = test system: Rattus norvegicus; assay: Half life in Sprague-Dawley rat at 5 mg/kg, iv; format: ADME, organism-based; design: dose 5 mg/kg, route intravenous; conditions: in vivo
# [21] = test system: Mus musculus; assay: Toxicity in ICR mouse assessed as appearance of clinical signs at 26.6 mg/kg, iv administered as single dose; format: organism-based; design: dose 26.6 mg/kg, route intravenous; conditions: in vivo
# [22] = test system: Mus musculus; assay: Toxicity in ICR mouse assessed as occurrence of diarrhea at 500 mg/kg, po administered as single dose; format: organism-based; design: dose 500 mg/kg, route oral; conditions: in vivo
# [23] = test system: SK-BR-3; assay: Cytotoxicity against human SKBR3 cells by MTT assay; format: functional, cell-based
# [24] = test system: Mus musculus; assay: Toxicity in ICR mouse assessed as appearance of solid perineal region at 1000 mg/kg, po administered as single dose; format: organism-based; design: dose 1000 mg/kg, route oral; conditions: in vivo
# [25] = test system: Mus musculus; assay: Toxicity in BALB/c mouse xenografted with human A549 cells assessed as decrease in body weight at 2 mg/kg, iv administered once per 2 days for 4 weeks measured on day 8; format: organism-based; design: dose 2 mg/kg, route intravenous; conditions: in vivo
# [26] = test system: LNCaP; assay: Cytotoxicity against human LNCAP cells by MTT assay; format: functional, cell-based
# [27] = test system: Mus musculus; assay: Toxicity in ICR mouse assessed as occurrence of erosion at 45 mg/kg, iv administered as single dose measured up to 10 mins; format: organism-based; design: dose 45 mg/kg, route intravenous; conditions: in vivo
# [28] = Toxicity in po dosed ICR mouse administered as single dose; format: organism-based; conditions: in vivo
# [29] = Toxicity in ICR mouse assessed as mortality rate at 34.6 mg/kg, iv administered as single dose; format: organism-based; design: dose 34.6 mg/kg, route intravenous; conditions: in vivo, read-out: Activity
# [30] = Toxicity in iv dosed ICR mouse administered as single dose; format: organism-based; conditions: in vivo
# [31] = test system: Mus musculus; assay: Toxicity in ICR mouse assessed as occurrence of inanimation at 45 mg/kg, iv administered as single dose measured up to 10 mins; format: organism-based; design: dose 45 mg/kg, route intravenous; conditions: in vivo
# [32] = Mean residence time in Sprague-Dawley rat at 5 mg/kg, iv; format: ADME, organism-based; design: dose 5 mg/kg, route intravenous; conditions: in vivo
# [33] = test system: HeLa; assay: Cytotoxicity against human HeLa cells by MTT assay; format: functional, cell-based
# [34] = Cytotoxicity against human A172 cells by MTT assay; format: functional, cell-based, A 172
# [35] = test system: Mus musculus; assay: Toxicity in ICR mouse assessed as occurrence of erosion at 34.6 mg/kg, iv administered as single dose; format: organism-based; design: dose 34.6 mg/kg, route intravenous; conditions: in vivo
# [36] = test system: Mus musculus; assay: Toxicity in ICR mouse assessed as loss of locomotor activity at 45 mg/kg, iv administered as single dose measured up to 10 mins; format: organism-based; design: dose 45 mg/kg, route intravenous; conditions: in vivo
# [37] = Oral bioavailability in Sprague-Dawley rat at 5 mg/kg; format: ADME, organism-based; conditions: in vivo
# [38] = test system: Rattus norvegicus; assay: Volume of distribution in Sprague-Dawley rat at 10 mg/kg, iv; format: ADME, organism-based; design: dose 10 mg/kg, route intravenous; conditions: in vivo
# [39] = Mean residence time in Sprague-Dawley rat at 10 mg/kg, iv; format: ADME, organism-based; design: dose 10 mg/kg, route intravenous; conditions: in vivo
# [40] = test system: Mus musculus; assay: Toxicity in ICR mouse assessed as appearance of solid perineal region at 500 mg/kg, po administered as single dose; format: organism-based; design: dose 500 mg/kg, route oral; conditions: in vivo
# [41] = test system: A549; assay: Antitumor activity against human A549 cells xenografted in BALB/c mouse assessed as inhibition of tumor weight at 2 mg/kg, iv QD for 28 days measured post last dose; format: functional; conditions: A549, 672 h
# [42] = test system: Mus musculus; assay: Toxicity in ICR mouse assessed as occurrence of panting at 34.6 mg/kg, iv administered as single dose; format: organism-based; design: dose 34.6 mg/kg, route intravenous; conditions: in vivo
# [43] = test system: Mus musculus; assay: Toxicity in ICR mouse assessed as occurrence of inanimation at 34.6 mg/kg, iv administered as single dose; format: organism-based; design: dose 34.6 mg/kg, route intravenous; conditions: in vivo
# [44] = Toxicity in ICR mouse assessed as mortality rate at 26.6 mg/kg, iv administered as single dose; format: organism-based; design: dose 26.6 mg/kg, route intravenous; conditions: in vivo, read-out: Activity
# [45] = Toxicity in ICR mouse assessed as mortality rate at 500 mg/kg, po administered as single dose; format: organism-based; design: dose 500 mg/kg, route oral; conditions: in vivo, read-out: Activity
# [46] = test system: A549; assay: Antitumor activity against human A549 cells xenografted in BALB/c mouse assessed as inhibition of tumor weight at 2 mg/kg, iv administered once per 2 days for 4 weeks measured post last dose; format: functional
# [47] = test system: A549; assay: Antitumor activity against human A549 cells xenografted in iv dosed BALB/c mouse assessed as inhibition of tumor weight administered QD for 28 days measured post last dose; format: functional, organism-based
compound,measurement,setting,value
CN(C)CCCCCN(C)C1=Nc2ccccc2C(CC(=O)NCc2ccccc2)N1c1ccc(-c2ccccc2)cc1.Cl.Cl (centres undefined),Activity,[1],Non-toxic
same,Vd,[2],0.33 L/kg
same,Activity,[3],Toxic
same,IC50,[4]; sk-ov-3,5.22 µM
same,Cmax,[5],460 ng/mL
same,AUC,[6],128 µg·h/mL
same,Activity,[7],Toxic
same,Activity,[8],Non-toxic
same,Activity,[9],Toxic
same,Ratio,[10],1.6
same,AUC,[11],279 µg·h/mL
same,IC50,[12]; mda-mb-231,1640 nM
same,inhibition in vivo at 1 mg/kg,[13],29%
same,mortality,[14],80%
same,bioavailability,[15],70.1%
same,IC50,[16]; a549,5 µM
same,mortality,[17],0%
same,t1/2,[18],1192.29 min
same,Cmax,[19],1030 ng/mL
same,t1/2,[20],522.96 min
same,Activity,[21],Toxic
same,Activity,[22],Toxic
same,IC50,[23]; sk-br-3,1830 nM
same,Activity,[24],Toxic
same,Activity,[25],Toxic
same,IC50,[26]; lncap,5.19 µM
same,Activity,[27],Toxic
same,LD50,[28],693 mg/kg
same,mortality,[29],20%
same,LD50,[30],40 mg/kg
same,Activity,[31],Toxic
same,MRT,[32],5.09 h
same,IC50,[33]; hela,3.11 µM
same,IC50,[34]; a 172,4.61 µM
same,Activity,[35],Toxic
same,Activity,[36],Toxic
same,bioavailability,[37],98.3%
same,Vd,[38],0.61 L/kg
same,MRT,[39],7.19 h
same,Activity,[40],Toxic
same,inhibition in vivo at 2 mg/kg,[41],49%
same,Activity,[42],Toxic
same,Activity,[43],Toxic
same,mortality,[44],0%
same,mortality,[45],40%
COc1cccc2c1C(=O)c1c(O)c3c(c(O)c1C2=O)C[C@@](O)(C(=O)CO)C[C@@H]3O[C@H]1C[C@H](N)[C@H](O)[C@H](C)O1 [DOXORUBICIN],inhibition in vivo at 2 mg/kg,[46],30%
CN(C)CCCCCN(C)C1=Nc2ccccc2C(CC(=O)NCc2ccccc2)N1c1ccc(-c2ccccc2)cc1 (centres undefined) [listing 1 of 2 here],IC50,"[4]; Homo sapiens, SK-OV-3",5 µM
same,IC50,"[12]; Homo sapiens, MDA-MB-231",2650 nM
same,IC50,"[16]; Homo sapiens, A549",5.17 µM
same,IC50,"[23]; Homo sapiens, SK-BR-3",2170 nM
same,IC50,"[26]; Homo sapiens, LNCaP",4.7 µM
same,IC50,"[33]; Homo sapiens, HeLa",4.04 µM
same,IC50,"[34]; Homo sapiens, A 172",4.83 µM
CN(C)CCCCCN(C)C1=Nc2ccccc2C(CC(=O)NCc2ccccc2)N1c1ccc(-c2ccccc2)cc1 (centres undefined) [listing 2 of 2 here],inhibition,[47],Dose-dependent effect
